Test results published in PMC8669712, “G Protein-Coupled Receptor GPR35 Suppresses Lipid Accumulation in Hepatocytes” (ACS Pharmacology & Translational Science, 2021).
Values joined by “and” are separate entries in the source; they are usually repeats but may differ in a detail not shown here. Identical values can stand only once.

Columns and labels:
mouse GPR35 = mouse GPR35 (Mus musculus, UniProt Q9ES90); assay: β-arrestin-based interaction assay, agonist potency at mouse GPR35; assay type: cell-based
Sequence of mouse GPR35 (Q9ES90 whole entry): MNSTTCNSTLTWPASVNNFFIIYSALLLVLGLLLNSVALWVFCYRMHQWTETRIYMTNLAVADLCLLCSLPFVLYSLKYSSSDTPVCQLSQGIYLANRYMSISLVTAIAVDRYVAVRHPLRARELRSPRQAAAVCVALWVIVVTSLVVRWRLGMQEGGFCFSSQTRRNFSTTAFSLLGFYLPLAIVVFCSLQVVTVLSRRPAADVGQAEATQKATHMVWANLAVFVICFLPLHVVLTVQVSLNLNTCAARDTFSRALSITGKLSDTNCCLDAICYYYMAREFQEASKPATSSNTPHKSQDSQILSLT

[1] = tested on: GPR35a-reconstituted clone 27 HepG2 cells; assay: Oil Red O lipid accumulation in GPR35a-reconstituted clone 27 cells; assay type: cell-based, human; details: clone 27, 72 h
Protocol: Briefly, CRISPR KO cells were transiently transfected 24 h with the human GPR35a expression vector using LipofectAMINE 3000 reagent, according to the manufacturer’s instructions. […] Alternatively, after 24 h transfection, cells were seeded onto a 12-well plate (1 × 10^5 cells/well) for 24 h at 37 °C. Then, cells were incubated with T0901317 and/or GPR35 agonists (in MEM containing 5% FBS) for 72 h. After the drug treatment, cells were stained with Oil Red O to examine the levels of lipid accumulation. Each experiment was repeated at least three times.
Lipid accumulation was measured by Oil Red O staining. A working solution of Oil Red O was prepared, as described with modification.[46] After drug treatment, cells were washed with PBS and fixed with formalin solution for 1 h at 4 °C. Then, cells were stained with Oil Red O working solution for 10 min at room temperature. After PBS washing, Oil Red O was extracted from cells using 150 μl of isopropanol and OD510 nm measured. […] These cells were then stained with Hoechst 33342 (1 μg/mL) and the fluorescence intensity of Hoechst (represents the DNA content in cells) was measured using a CLARIOstar plate reader (BMG LABTECH). Oil Red O accumulation was corrected for differences in DNA content and expressed as relative absorbency, taking the control condition (treated with vehicle only) as 1.

[2] = tested on: GPR35 knock-out clones of HepG2 cells; assay: Oil Red O lipid accumulation in GPR35 knock-out clones of HepG2 cells; assay type: cell-based, human; details: lodoxamide 1 × 10^–6 M or 1 × 10^–5 M
Protocol: Human hepatocellular carcinoma HepG2 cells were grown in Minimum Essential Medium (MEM) supplemented with 10% fetal bovine serum (FBS), 2 mM L-glutamine, 1× non-essential amino acid, 1 mM sodium pyruvate, and 1× penicillin/streptomycin. Materials for cell culture were all from Sigma-Aldrich (St. Louis, MO) or Thermo Fisher Scientific (Waltham, MA). Cells were incubated in a humidified CO2 incubator at 37 °C. Experiments were performed when cell confluence reached 80%. Cells were seeded onto a 12-well plate (1 × 10^5 cells/well) for 24 h prior to drug treatment. […] Expression of full-length mRNA from the GPR35 gene was eliminated using a dual synthetic gRNA/RNP approach[43] with one guide cutting the intron and one in the exon region to generate a nonfunctional GPR35 protein. The gRNAs were designed with the CRISPR Finder (Welcome Sanger Institute). […] Transfected cells were plated and analyzed for editing efficiency 24-48 h after electroporation. […] To further quantify and capture the genomic DNA deletion, PCR primers listed in Table S1 were designed to amplify the genomic DNA surrounding the target site. […] The amplified PCR products were subjected to paired-end sequencing using NextSeq500 from Illumina using paired-end chemistry with a 150-bp read length. […] The impedance was recorded using xCELLigence RTCA. […] Lipid accumulation was measured by Oil Red O staining.

[3] = tested on: hepatocytes from hGPR35a-HA-expressing mice; assay: Label-free cellular impedance assay in hepatocytes from hGPR35a-HA-expressing mice; assay type: cell-based, mouse; details: lodoxamide 1 × 10^–7 M
HepG2 cells = assay: Label-free cellular impedance assay (xCELLigence) in HepG2 cells; assay type: cell-based, human
Protocol: HepG2 cells were seeded onto xCELLigence E plates (2 × 10^4 cells/well) and incubated for 24 h at 37 °C. To evaluate GPR35 activation and its downstream G protein signaling, HepG2 cells or primary mouse hepatocytes were exposed to GPR35 antagonists or G protein inhibitors 1 h (overnight for Pertussis toxin) prior to GPR35 agonist stimulation. After the addition of GPR35 agonist or vehicle control, the impedance (represented as “cell index”) was recorded every 30 s over a 2 h period using xCELLigence RTCA (Agilent). Each experiment was repeated at least three times.

[4] = tested on: primary mouse hepatocytes; set-up: method as in Nam et al. 37; details: ref Nam et al. 37; read-out: EC50 to limit lipid accumulation in mouse hepatocytes; cited from earlier work

N#Cc1cc(NC(=O)C(=O)O)c(Cl)c(NC(=O)C(=O)O)c1 [lodoxamide, 2-[2-chloro-5-cyano-3-(oxaloamino)anilino]-2-oxoacetic acid]
fold lower potency at mouse GPR35 than at human GPR35 (mouse GPR35; mouse versus human GPR35): ~450 fold and ~500 fold | EC50 (mouse GPR35; β-arrestin-based interaction assay, read-out: mouse GPR35, pEC50 (converted)): 1.91 µM | lipid accumulation induced by T0901317 in GPR35a-reconstituted cells [1]: again able to prevent the lipid accumulation | suppression of the effect of T0901317 on lipid accumulation in GPR35 knock-out clones [2]: unable to suppress the effect of T0901317 | cellular impedance response in hepatocytes from hGPR35a-HA-expressing mice [3]: time-dependent increase in cellular impedance | impedance signal in parental HepG2 cells (HepG2 cells; 1 × 10^–5 M): produced positive signals | time for the impedance signal to reach a plateau (HepG2 cells; HepG2 cells, lodoxamide 1 × 10^–8 M): ≤ 5 min | EC50 [4]: 0.0061 µM
